Measurements reported in ChEMBL document CHEMBL1124446, “Synthesis of some novel potent and selective catechol O-methyltransferase inhibitors” (J Med Chem, 1989).

Columns and labels:
[1] = biological target: T1, Catechol O-methyltransferase (Rattus norvegicus, UniProt P22734); test: In vitro inhibitory activity against catechol O-methyltransferase of rat brain using 3,4-dihydroxybenzoic acid as the substrate.
T1 sequence (P22734 whole entry): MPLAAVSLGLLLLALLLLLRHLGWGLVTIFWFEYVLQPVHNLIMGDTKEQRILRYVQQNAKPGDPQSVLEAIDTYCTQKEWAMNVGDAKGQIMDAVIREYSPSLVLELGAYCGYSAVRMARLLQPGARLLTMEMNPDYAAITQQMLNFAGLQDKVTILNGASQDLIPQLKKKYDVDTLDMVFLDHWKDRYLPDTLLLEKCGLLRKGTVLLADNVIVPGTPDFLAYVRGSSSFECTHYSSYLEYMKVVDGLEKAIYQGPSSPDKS

[2] = biological target: T2, Aromatic-L-amino-acid decarboxylase (Sus scrofa, UniProt P80041); test: Inhibitory activity against the dopamine decarboxylase
T2 sequence (P80041 whole entry): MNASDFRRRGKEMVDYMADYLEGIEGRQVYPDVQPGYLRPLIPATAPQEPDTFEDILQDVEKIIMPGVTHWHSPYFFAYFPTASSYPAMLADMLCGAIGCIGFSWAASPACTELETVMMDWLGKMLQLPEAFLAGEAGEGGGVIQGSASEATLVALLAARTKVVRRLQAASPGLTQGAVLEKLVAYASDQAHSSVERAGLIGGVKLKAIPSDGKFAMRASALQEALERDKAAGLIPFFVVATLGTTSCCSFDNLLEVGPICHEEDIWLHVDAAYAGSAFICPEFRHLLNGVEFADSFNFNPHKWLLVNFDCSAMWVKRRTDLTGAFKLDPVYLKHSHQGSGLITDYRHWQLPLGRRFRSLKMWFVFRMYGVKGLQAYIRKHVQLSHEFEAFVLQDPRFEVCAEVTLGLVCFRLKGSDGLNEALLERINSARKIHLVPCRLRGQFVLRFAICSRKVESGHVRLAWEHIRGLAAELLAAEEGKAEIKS

[3] = biological target: T3, Amine oxidase [flavin-containing] B (Rattus norvegicus, UniProt P19643); test: Inhibitory activity against the Monoamine oxidase B
T3 sequence (P19643 whole entry): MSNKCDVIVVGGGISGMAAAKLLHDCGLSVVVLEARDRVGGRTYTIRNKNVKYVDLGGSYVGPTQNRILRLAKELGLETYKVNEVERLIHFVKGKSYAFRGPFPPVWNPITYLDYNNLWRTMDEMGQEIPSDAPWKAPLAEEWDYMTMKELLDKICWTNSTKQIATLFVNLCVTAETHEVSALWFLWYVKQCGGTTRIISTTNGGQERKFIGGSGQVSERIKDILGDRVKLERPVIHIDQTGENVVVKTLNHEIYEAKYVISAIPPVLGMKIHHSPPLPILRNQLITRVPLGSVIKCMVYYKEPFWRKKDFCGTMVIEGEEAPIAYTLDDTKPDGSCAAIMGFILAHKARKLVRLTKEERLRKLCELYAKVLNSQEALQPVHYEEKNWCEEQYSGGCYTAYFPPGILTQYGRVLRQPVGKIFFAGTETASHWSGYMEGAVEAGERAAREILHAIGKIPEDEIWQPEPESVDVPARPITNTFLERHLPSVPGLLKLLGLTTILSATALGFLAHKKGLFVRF

[4] = biological target: T4, Amine oxidase [flavin-containing] A (Mus musculus, UniProt Q64133); test: Inhibitory activity against the Monoamine oxidase A
T4 sequence (Q64133 whole entry): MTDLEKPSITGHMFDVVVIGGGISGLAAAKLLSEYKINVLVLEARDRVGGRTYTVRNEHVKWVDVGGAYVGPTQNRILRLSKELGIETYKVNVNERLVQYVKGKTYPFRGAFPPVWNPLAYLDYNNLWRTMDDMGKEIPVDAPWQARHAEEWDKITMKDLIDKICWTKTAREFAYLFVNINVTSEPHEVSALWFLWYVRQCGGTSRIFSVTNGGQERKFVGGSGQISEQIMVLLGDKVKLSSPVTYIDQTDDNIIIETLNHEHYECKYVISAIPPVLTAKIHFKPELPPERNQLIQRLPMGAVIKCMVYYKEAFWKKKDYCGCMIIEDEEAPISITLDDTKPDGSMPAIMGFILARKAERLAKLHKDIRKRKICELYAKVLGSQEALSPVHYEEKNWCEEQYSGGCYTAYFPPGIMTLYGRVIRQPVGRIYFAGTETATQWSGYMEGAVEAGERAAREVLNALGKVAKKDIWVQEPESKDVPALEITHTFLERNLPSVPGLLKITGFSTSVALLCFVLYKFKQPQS

Tyrosine 3-monooxygenase = biological target: T5, Tyrosine 3-monooxygenase (Bos taurus, UniProt P17289); test: Inhibitory activity against the tyrosine hydroxylase
T5 sequence (P17289 whole entry): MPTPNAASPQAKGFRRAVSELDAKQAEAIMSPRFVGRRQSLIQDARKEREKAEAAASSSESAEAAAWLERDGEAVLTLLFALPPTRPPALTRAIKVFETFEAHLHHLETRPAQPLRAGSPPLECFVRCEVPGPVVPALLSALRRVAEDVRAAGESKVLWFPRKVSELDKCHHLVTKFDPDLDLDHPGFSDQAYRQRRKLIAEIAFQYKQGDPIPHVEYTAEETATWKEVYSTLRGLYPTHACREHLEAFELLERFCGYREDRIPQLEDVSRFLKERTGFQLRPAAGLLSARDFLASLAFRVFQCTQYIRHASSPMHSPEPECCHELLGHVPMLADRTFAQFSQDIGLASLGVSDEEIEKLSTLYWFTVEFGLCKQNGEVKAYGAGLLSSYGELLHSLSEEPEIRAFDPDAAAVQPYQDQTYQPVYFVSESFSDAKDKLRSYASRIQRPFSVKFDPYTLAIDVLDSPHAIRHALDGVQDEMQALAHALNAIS

[5] = biological target: T6, Dopamine beta-hydroxylase (Homo sapiens, UniProt P09172); test: Inhibitory activity against the dopamine beta hydroxylase
T6 sequence (P09172 whole entry): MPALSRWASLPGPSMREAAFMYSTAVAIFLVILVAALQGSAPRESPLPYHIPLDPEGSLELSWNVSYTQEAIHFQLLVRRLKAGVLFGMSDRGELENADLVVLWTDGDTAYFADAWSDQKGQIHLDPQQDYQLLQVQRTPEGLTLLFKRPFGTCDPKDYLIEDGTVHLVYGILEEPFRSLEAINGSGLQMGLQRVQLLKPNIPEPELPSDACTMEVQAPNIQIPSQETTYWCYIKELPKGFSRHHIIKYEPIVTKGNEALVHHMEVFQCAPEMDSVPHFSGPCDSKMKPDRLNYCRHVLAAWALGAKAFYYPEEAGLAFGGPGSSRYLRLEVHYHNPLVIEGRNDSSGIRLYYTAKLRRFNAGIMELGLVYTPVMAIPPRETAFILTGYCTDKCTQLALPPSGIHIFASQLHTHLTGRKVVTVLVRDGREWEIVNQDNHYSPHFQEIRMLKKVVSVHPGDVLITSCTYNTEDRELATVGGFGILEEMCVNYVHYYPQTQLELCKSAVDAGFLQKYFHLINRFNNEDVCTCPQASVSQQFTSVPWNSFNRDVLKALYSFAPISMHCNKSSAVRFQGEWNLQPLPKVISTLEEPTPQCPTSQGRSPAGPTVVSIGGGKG

[6] = Inhibitory activity against Phenol sulfotransferase
Rattus norvegicus [7] = test: Inhibition of formation of 3OMD in rat serum by 80 %, when compound was administered in combination with L-Dopa and carbidopa; assay type: functional
Rattus norvegicus [8] = species on record: Rattus norvegicus; test: Compound was tested for acute oral toxicity in Wistar rats; assay type: organism-based; conditions: in vivo

`N#CC(C#N)=Cc1cc(O)c(O)c([N+](=O)[O-])c1` gave an IC50 [1] of 0.02 µM.

With `O=Cc1cc(O)c(O)c(C(F)(F)F)c1` the IC50 [1] was 2.3 µM.

With `CC(=O)/C(C)=C/c1cc(O)c(O)c([N+](=O)[O-])c1` the IC50 [1] was 0.012 µM.

Work on `N#Cc1cc(C(=O)NC23CC4CC(CC(C4)C2)C3)cc(O)c1O` yielded an IC50 [1] of 0.09 µM.

In the case of `CN(C)C(=O)/C(C#N)=C/c1cc(O)c(O)c([N+](=O)[O-])c1`, the IC50 [1] is reported as 0.018 µM.

Compound `O=C(NC12CC3CC(CC(C3)C1)C2)c1cc(O)c(O)c(Cl)c1` has an IC50 [1] of 0.4 µM.

Work on `COc1cc(C(=O)/C=C/c2cc(O)c(O)c([N+](=O)[O-])c2)cc(OC)c1OC` yielded an IC50 [1] of 0.005 µM, an IC50 [2] of over 50 µM and an IC50 [3] of over 50 µM. It also gave an IC50 [4] of over 50 µM, an IC50 (Tyrosine 3-monooxygenase) of 21 µM and an IC50 [5] of over 50 µM.

With `O=C(O)CCCCc1cc(O)c(O)c(Cl)c1` the IC50 [1] was 8 µM.

`CC(=O)c1cc(O)c(O)c([N+](=O)[O-])c1` showed an IC50 [1] of 0.016 µM and an IC50 [6] of 125 µM.

`O=C(NC12CC3CC(CC(C3)C1)C2)c1ccc(O)c(O)c1Cl` showed an IC50 [1] of 12 µM.

Compound `N#Cc1cc(C=O)cc(O)c1O` has an IC50 [1] of 0.16 µM.

Work on `O=C(NC12CC3CC(CC(C3)C1)C2)c1cc(O)c(O)cc1Cl` yielded an IC50 [1] of 2.7 µM.

Compound `N#Cc1cc(O)c(O)c([N+](=O)[O-])c1` has an IC50 [1] of 0.03 µM.

Work on `O=C(/C=C/c1cc(O)c(O)c([N+](=O)[O-])c1)c1ccccc1` yielded an IC50 [1] of 0.006 µM, an IC50 [2] of over 50 µM and an IC50 [3] of over 50 µM. It also gave an IC50 [4] of over 50 µM, an IC50 (Tyrosine 3-monooxygenase) of 50 µM and an IC50 [5] of over 50 µM.

With `O=C(O)c1cc(O)c(O)c([N+](=O)[O-])c1` the IC50 [1] was 0.62 µM.

Work on `O=C1/C(=C/c2cc(O)c(O)c([N+](=O)[O-])c2)CC/C1=C\c1cc(O)c(O)c([N+](=O)[O-])c1` yielded an IC50 [1] of 0.003 µM.

`O=C(NC12CC3CC(CC(C3)C1)C2)c1cc(O)c(O)c([N+](=O)[O-])c1` showed an IC50 [1] of 0.019 µM.

Compound `O=C(NC12CC3CC(CC(C3)C1)C2)c1cc(O)c(O)cc1[N+](=O)[O-]` has an IC50 [1] of 1.1 µM.

`CCOC(=O)/C(C#N)=C/c1cc(O)c(O)c([N+](=O)[O-])c1` gave an IC50 [1] of 0.05 µM.

`CC(C)C(=O)c1ccc(O)c(O)c1` showed an IC50 [1] of 6 µM, an IC50 [2] of over 50 µM and an IC50 [3] of over 50 µM. It also gave an IC50 [4] of over 50 µM, an IC50 (Tyrosine 3-monooxygenase) of 24 µM and an IC50 [5] of over 50 µM.

In the case of `O=C(O)CCCCc1cc(O)c(O)c([N+](=O)[O-])c1`, the IC50 [1] is reported as 0.09 µM.

`CS(=O)(=O)c1cc(C=O)cc(O)c1O` gave an IC50 [1] of 20 µM.

For `CC(=O)C(=Cc1cc(O)c(O)c(C(F)(F)F)c1)C(C)=O`, the IC50 [1] was 1.5 µM.

Compound `O=[N+]([O-])c1cc(Cl)cc(O)c1O` has an IC50 [1] of 0.025 µM.

Compound `O=[N+]([O-])c1cc(CO)cc(O)c1O` has an IC50 [1] of 0.18 µM.

Work on `O=Cc1cc(O)c(O)c(C=O)c1` yielded an IC50 [1] of 0.16 µM.

In the case of `O=Cc1cc(O)c(O)c([N+](=O)[O-])c1` [3,4-DIHYDROXY-5-NITROBENZALDEHYDE], the IC50 [1] is reported as 0.024 µM.

`O=[N+]([O-])c1cc(O)c(O)c([N+](=O)[O-])c1` [3,5-DINITROCATECHOL (OR-486)] showed an IC50 [6] of 150 µM.

`CC(=O)C(=Cc1cc(O)c(O)c([N+](=O)[O-])c1)C(C)=O` [NITECAPONE] gave an IC50 [1] of 0.018 µM, an IC50 [6] of 210 µM and an Oral dose (Rattus norvegicus [7]) of 30 mg/kg. For the same compound, the Toxicity (Rattus norvegicus [8]) was 2500 mg/kg.
